Measured values from PubChem BioAssay (NCI).
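Tested at 5 concentrations; 48 h exposure; 96-well plates; endpoints linearly interpolated, else capped at highest concentration. GI50 marks 50% less growth. At the TGI there is no net growth.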

Experiments:
Assay in all cases: NCI-60 cell line screen, 48 h
OVCAR-5 ovarian = tested on: OVCAR-5 ovarian
HT29 colon = tested on: HT29 colon
NCI-H23 lung = tested on: NCI-H23 lung
HOP-92 NSCLC = tested on: HOP-92 NSCLC
ACHN renal = tested on: ACHN renal
NCI-H460 lung = tested on: NCI-H460 lung
UO-31 renal = tested on: UO-31 renal
LOX IMVI melanoma = tested on: LOX IMVI melanoma
SNB-75 CNS = tested on: SNB-75 CNS
M14 melanoma = tested on: M14 melanoma
DU-145 prostate = tested on: DU-145 prostate
OVCAR-4 ovarian = tested on: OVCAR-4 ovarian
PC-3 prostate = tested on: PC-3 prostate
IGROV1 ovarian = tested on: IGROV1 ovarian
HOP-62 NSCLC = tested on: HOP-62 NSCLC
OVCAR-3 ovarian = tested on: OVCAR-3 ovarian
SK-MEL-2 melanoma = tested on: SK-MEL-2 melanoma
NCI/ADR-RES ovarian = tested on: NCI/ADR-RES ovarian
SNB-19 CNS = tested on: SNB-19 CNS
MOLT-4 leukemia = tested on: MOLT-4 leukemia
U251 CNS = tested on: U251 CNS
RPMI-8226 leukemia = tested on: RPMI-8226 leukemia
SF-295 CNS = tested on: SF-295 CNS
CCRF-CEM leukemia = tested on: CCRF-CEM leukemia
HCC-2998 colon = tested on: HCC-2998 colon
MDA-MB-231 breast = tested on: MDA-MB-231 breast
SW-620 colon = tested on: SW-620 colon
NCI-H522 lung = tested on: NCI-H522 lung
786-0 renal = tested on: 786-0 renal
A549 NSCLC = tested on: A549 NSCLC
CAKI-1 renal = tested on: CAKI-1 renal
SF-268 CNS = tested on: SF-268 CNS
KM12 colon = tested on: KM12 colon
HCT-116 colon = tested on: HCT-116 colon
UACC-257 melanoma = tested on: UACC-257 melanoma
K-562 leukemia = tested on: K-562 leukemia
SK-MEL-5 melanoma = tested on: SK-MEL-5 melanoma
NCI-H226 lung = tested on: NCI-H226 lung
COLO 205 colon = tested on: COLO 205 colon
SK-MEL-28 melanoma = tested on: SK-MEL-28 melanoma
EKVX NSCLC = tested on: EKVX NSCLC
SF-539 CNS = tested on: SF-539 CNS
MDA-N = tested on: MDA-N
MALME-3M melanoma = tested on: MALME-3M melanoma
MCF7 breast = tested on: MCF7 breast
MDA-MB-435 = tested on: MDA-MB-435
HS 578T breast = tested on: HS 578T breast
SN12C renal = tested on: SN12C renal
TK-10 renal = tested on: TK-10 renal
OVCAR-8 ovarian = tested on: OVCAR-8 ovarian
HCT-15 colon = tested on: HCT-15 colon
BT-549 breast = tested on: BT-549 breast
HL-60(TB) leukemia = tested on: HL-60(TB) leukemia
SK-OV-3 ovarian = tested on: SK-OV-3 ovarian
SR leukemia = tested on: SR leukemia
RXF 393 renal = tested on: RXF 393 renal
T-47D breast = tested on: T-47D breast
A498 renal = tested on: A498 renal
UACC-62 melanoma = tested on: UACC-62 melanoma

`CC[C@H](CC[C@@H](C)[C@H]1CC[C@H]2[C@@H]3CC=C4C[C@@H](O)CC[C@]4(C)[C@H]3CC[C@]12C)C(C)C` was tested, and the TGI (OVCAR-5 ovarian) was > 100000 nM, the TGI (HT29 colon) was > 100000 nM and the TGI (NCI-H23 lung) was > 100000 nM. For the same compound, the TGI (HOP-92 NSCLC) was > 100000 nM, the TGI (ACHN renal) was > 100000 nM and the TGI (NCI-H460 lung) was > 100000 nM. For the same compound, the TGI (UO-31 renal) was > 100000 nM, the TGI (LOX IMVI melanoma) was > 100000 nM and the TGI (SNB-75 CNS) was > 100000 nM. For the same compound, the TGI (M14 melanoma) was > 100000 nM, the TGI (DU-145 prostate) was > 100000 nM and the TGI (OVCAR-4 ovarian) was > 100000 nM. For the same compound, the TGI (PC-3 prostate) was > 100000 nM, the TGI (IGROV1 ovarian) was > 100000 nM and the TGI (HOP-62 NSCLC) was > 100000 nM. For the same compound, the TGI (OVCAR-3 ovarian) was > 100000 nM, the TGI (SK-MEL-2 melanoma) was > 100000 nM and the TGI (NCI/ADR-RES ovarian) was > 100000 nM. For the same compound, the TGI (SNB-19 CNS) was > 100000 nM, the TGI (MOLT-4 leukemia) was > 100000 nM and the TGI (U251 CNS) was > 100000 nM. For the same compound, the TGI (RPMI-8226 leukemia) was > 100000 nM, the TGI (SF-295 CNS) was > 100000 nM and the TGI (CCRF-CEM leukemia) was > 100000 nM. For the same compound, the TGI (HCC-2998 colon) was > 100000 nM, the TGI (MDA-MB-231 breast) was > 100000 nM and the TGI (SW-620 colon) was > 100000 nM. The TGI (NCI-H522 lung) was > 100000 nM, the TGI (786-0 renal) was > 100000 nM and the TGI (A549 NSCLC) was > 100000 nM. For the same compound, the TGI (CAKI-1 renal) was > 100000 nM, the TGI (SF-268 CNS) was > 100000 nM and the TGI (KM12 colon) was > 100000 nM. The TGI (HCT-116 colon) was > 100000 nM, the TGI (UACC-257 melanoma) was > 100000 nM and the TGI (K-562 leukemia) was > 100000 nM. The TGI (SK-MEL-5 melanoma) was > 100000 nM, the TGI (NCI-H226 lung) was > 100000 nM and the TGI (COLO 205 colon) was > 100000 nM. For the same compound, the TGI (SK-MEL-28 melanoma) was > 100000 nM, the TGI (EKVX NSCLC) was > 100000 nM and the TGI (SF-539 CNS) was > 100000 nM. For the same compound, the TGI (MDA-N) was > 100000 nM, the TGI (MALME-3M melanoma) was > 100000 nM and the TGI (MCF7 breast) was > 100000 nM. The TGI (MDA-MB-435) was > 100000 nM, the TGI (HS 578T breast) was > 100000 nM and the TGI (SN12C renal) was > 100000 nM. For the same compound, the TGI (TK-10 renal) was > 100000 nM, the TGI (OVCAR-8 ovarian) was > 100000 nM and the TGI (HCT-15 colon) was > 100000 nM.
`O=C(CC1(O)C(=O)N(Cc2ccccc2)c2ccc(Br)cc21)c1ccc(C(=O)NCC2CCC3(CC2)OOC2(CCCCC2)OO3)cc1` (configuration not stated) showed a GI50 (OVCAR-5 ovarian) of 1580 nM, a TGI (OVCAR-5 ovarian) of 15600 nM and a GI50 (HT29 colon) of 615 nM. It also gave a TGI (HT29 colon) of 2060 nM, a GI50 (NCI-H23 lung) of 237 nM and a TGI (NCI-H23 lung) of 595 nM. The GI50 (HOP-92 NSCLC) was 213 nM, the TGI (HOP-92 NSCLC) was 468 nM and the GI50 (BT-549 breast) was 3260 nM. For the same compound, the TGI (BT-549 breast) was 20100 nM, the GI50 (ACHN renal) was 239 nM and the TGI (ACHN renal) was 598 nM. The GI50 (NCI-H460 lung) was 488 nM, the TGI (NCI-H460 lung) was 1660 nM and the GI50 (UO-31 renal) was 187 nM. It also gave a TGI (UO-31 renal) of 363 nM, a GI50 (LOX IMVI melanoma) of 152 nM and a TGI (LOX IMVI melanoma) of 304 nM. The GI50 (SNB-75 CNS) was 1530 nM, the TGI (SNB-75 CNS) was 6020 nM and the GI50 (M14 melanoma) was 4310 nM. It also gave a TGI (M14 melanoma) of 30600 nM, a GI50 (HL-60(TB) leukemia) of 330 nM and a TGI (HL-60(TB) leukemia) of 1120 nM. The GI50 (DU-145 prostate) was 191 nM, the TGI (DU-145 prostate) was 354 nM and the GI50 (OVCAR-4 ovarian) was 3810 nM. The TGI (OVCAR-4 ovarian) was 16300 nM, the GI50 (PC-3 prostate) was 1730 nM and the TGI (PC-3 prostate) was 12500 nM. For the same compound, the GI50 (IGROV1 ovarian) was 278 nM, the TGI (IGROV1 ovarian) was 799 nM and the GI50 (HOP-62 NSCLC) was 237 nM. The TGI (HOP-62 NSCLC) was 619 nM, the GI50 (SK-OV-3 ovarian) was 7260 nM and the TGI (SK-OV-3 ovarian) was > 24200 nM. For the same compound, the GI50 (OVCAR-3 ovarian) was 435 nM, the TGI (OVCAR-3 ovarian) was 1520 nM and the GI50 (SK-MEL-2 melanoma) was 3690 nM. It also gave a TGI (SK-MEL-2 melanoma) of 13200 nM, a GI50 (NCI/ADR-RES ovarian) of 583 nM and a TGI (NCI/ADR-RES ovarian) of 1810 nM. For the same compound, the GI50 (SNB-19 CNS) was 8130 nM, the TGI (SNB-19 CNS) was > 100000 nM and the GI50 (MOLT-4 leukemia) was 1980 nM. The TGI (MOLT-4 leukemia) was 6540 nM, the GI50 (U251 CNS) was 301 nM and the TGI (U251 CNS) was 920 nM. For the same compound, the GI50 (RPMI-8226 leukemia) was 830 nM, the TGI (RPMI-8226 leukemia) was 3690 nM and the GI50 (SF-295 CNS) was 794 nM. The TGI (SF-295 CNS) was 2460 nM, the GI50 (SR leukemia) was 216 nM and the TGI (SR leukemia) was 981 nM. The GI50 (CCRF-CEM leukemia) was 350 nM, the TGI (CCRF-CEM leukemia) was 1110 nM and the GI50 (HCC-2998 colon) was 2190 nM. The TGI (HCC-2998 colon) was 5100 nM, the GI50 (MDA-MB-231 breast) was 549 nM and the TGI (MDA-MB-231 breast) was 2030 nM. For the same compound, the GI50 (SW-620 colon) was 2890 nM, the TGI (SW-620 colon) was 10100 nM and the GI50 (NCI-H522 lung) was 214 nM. For the same compound, the TGI (NCI-H522 lung) was 556 nM, the GI50 (RXF 393 renal) was 554 nM and the TGI (RXF 393 renal) was 1290 nM. For the same compound, the GI50 (786-0 renal) was 173 nM, the TGI (786-0 renal) was 334 nM and the GI50 (A549 NSCLC) was 224 nM. The TGI (A549 NSCLC) was 496 nM, the GI50 (CAKI-1 renal) was 557 nM and the TGI (CAKI-1 renal) was 1060 nM. The GI50 (SF-268 CNS) was 2030 nM, the TGI (SF-268 CNS) was 6740 nM and the GI50 (KM12 colon) was 435 nM. The TGI (KM12 colon) was 1700 nM, the GI50 (T-47D breast) was 1300 nM and the TGI (T-47D breast) was 6280 nM. For the same compound, the GI50 (HCT-116 colon) was 2080 nM, the TGI (HCT-116 colon) was 8180 nM and the GI50 (UACC-257 melanoma) was 16100 nM. For the same compound, the TGI (UACC-257 melanoma) was > 100000 nM, the GI50 (A498 renal) was 2220 nM and the TGI (A498 renal) was 6860 nM. The GI50 (K-562 leukemia) was 1690 nM, the TGI (K-562 leukemia) was 8280 nM and the GI50 (SK-MEL-5 melanoma) was 3010 nM. It also gave a TGI (SK-MEL-5 melanoma) of 10000 nM, a GI50 (NCI-H226 lung) of 5060 nM and a TGI (NCI-H226 lung) of 19300 nM. It also gave a GI50 (COLO 205 colon) of 2040 nM, a TGI (COLO 205 colon) of 5950 nM and a GI50 (SK-MEL-28 melanoma) of 17000 nM. The TGI (SK-MEL-28 melanoma) was > 100000 nM, the GI50 (UACC-62 melanoma) was 11200 nM and the TGI (UACC-62 melanoma) was > 59000 nM. For the same compound, the GI50 (EKVX NSCLC) was 437 nM, the TGI (EKVX NSCLC) was 1590 nM and the GI50 (SF-539 CNS) was 322 nM. The TGI (SF-539 CNS) was 988 nM, the GI50 (MALME-3M melanoma) was 594 nM and the TGI (MALME-3M melanoma) was 2050 nM. For the same compound, the GI50 (MCF7 breast) was 2650 nM, the TGI (MCF7 breast) was > 87900 nM and the GI50 (MDA-MB-435) was 647 nM. The TGI (MDA-MB-435) was 1930 nM, the GI50 (HS 578T breast) was 2930 nM and the TGI (HS 578T breast) was 15900 nM. For the same compound, the GI50 (SN12C renal) was 1160 nM, the TGI (SN12C renal) was 3180 nM and the GI50 (TK-10 renal) was 350 nM. It also gave a TGI (TK-10 renal) of 989 nM, a GI50 (OVCAR-8 ovarian) of 285 nM and a TGI (OVCAR-8 ovarian) of 1010 nM. For the same compound, the GI50 (HCT-15 colon) was 1150 nM and the TGI (HCT-15 colon) was 4670 nM.
